Test system: HEK293T cells
Assay: Polysome fractionation and real-time PCR of specific genes
Assay type: cell-based, human
Conditions: 3 h
Description: FIGS. 5A-D: 5′UTR length-dependent translational control by the eIF1-eIF4G1. […] The asterisks denote a statistically significant difference. **p<0.01, ****p<0.0001. (5B) A scheme of the firefly reporter genes that are driven by long (354 nt) and short (111 nt) 5′ UTR length, is shown on the top. HEK293T cells were transfected with these reporter genes. After 4 h, transfected cells were treated with DMSO, i14G1-10 (5 μM), or i14G1-12 (5 μM) for 16 h and analyzed for firefly luciferase activities. The graph presents the normalized luminescence activity of the long 5′UTR and the short 5′UTR reporters in the indicated treatments. The data are shown as mean±SEM, n=6. The asterisks denote statistically significant difference compared to DMSO, according to Student's t-tests (one-tailed, paired). *p<0.05; **p<0.01. (5C-D) HEK293T cells were treated with DMSO, i14G1-10, and i14G1-12 for 3 h, lysed, and subjected to sucrose gradient sedimentation and fractionation. Fractions were pooled according to polysome profile as free (grey), light (blue), and heavy (yellow) polysomal fractions. cDNA was prepared from each fraction pool and real-time PCR was performed for the indicated TISU genes (5C) or histone genes (5D). The data are shown as mean±SEM, n=3. The asterisks denote statistically significant difference compared to DMSO, according to Student's t-tests (one-tailed, paired), *p<0.05; **p<0.01.
FIGS. 7A-E: (7A) Ribo-seq and TI-seq read tracks of representative stress response-associated mRNAs (DDIT3 and GADD34) in DMSO (black), i14G1-10 (red), and i14G1-12 (green) samples. The red triangle represents 5′UTR TIS codons and the green denotes annotated TIS. Black arrows show the translation direction. […] The graphs in the lower panel are the quantification of ATF4's uORF1′, uORF1, uORF2, and main-ORF reads of the Ribo-seq data. The asterisks denote statistically significant difference compared to DMSO, according to Student's t-tests (one-tailed, paired). **p<0.01, ***p<0.001, ****p<0.0001. (7C) HEK293T cells were treated with DMSO, i14G1-10, and i14G1-12 for 3 h, lysed and subjected to sucrose gradient sedimentation and fractionation. Fractions of the free (grey), light (blue), and heavy (yellow) were pooled. cDNA was prepared from each fraction pool and real-time PCR was performed for the indicated ISR genes. The data are shown as mean±SEM, n=3. The asterisks denote statistically significant difference compared to DMSO, according to Student's t-tests (one-tailed, paired). *p<0.05; **p<0.01. (7D) HEK293T cells were treated with DMSO, i14G1-10, and i14G1-12 for 3 h. The respective cell lysates were subjected to western blot to check the protein levels of ATF3 and ATF4 (left). The graph represents the relative chemiluminescence signal intensity (mean±SEM) for ATF4 and AT3 normalized to GAPDH protein levels of three biological replicates. The asterisks denote statistically significant difference compared to DMSO, according to Student's t-tests (one-tailed, paired), *p<0.05. (7E) Control MEFs and eIF2α S52A mutant MEFs were treated with DMSO (vehicle control), and sub-cytotoxic concentrations of i14G1-10 (30 μM) and i14G1-12 (15 μM) for 3h. Cell lysates were then subjected to sucrose gradient sedimentation to obtain polysome profiles.
Polysome profile and real-time PCR. HEK293T cells were cultured in 10 cm plate up to 80% confluence, followed by DMSO, i14G1-10 (20 μM), and i14G1-12 (10 μM) treatment. After 3 h, the cells were incubated with 100 μg/ml cycloheximide for 5 minutes, washed with cold polysome buffer (20 mM Tris pH8, 140 mM KCl, 5 mM MgCl2, and 100 μg/ml cycloheximide). Cells were collected in 500-μl polysome buffer supplemented with 0.5% Triton, 0.5% DOC, 1.5 mM DTT, 150 units RNase inhibitor, and 5-μl protease inhibitor cocktail. Lysed samples were centrifuged at 12000 RPM, 5 minutes at 4° C. The cleared lysate was loaded onto sucrose density gradient (10-50%) and centrifuged at 38000 RPM for 105 minutes at 4° C. […]

| SMILES | translation of ACTB mRNA (control) in polysome fractions | translation of eight histone genes in polysome fractions | translation of seven TISU genes in polysome fractions | translation of stress-response genes in Free, Light and Heavy polysome fractions |
| --- | --- | --- | --- | --- |
| O=C(/C=C/Sc1ccc(C(F)(F)F)cn1)c1ccccc1 [i14G1-10] | decreased translation of the ACTB mRNA | general trend of upregulation | either unaffected or slightly upregulated | all found to be upregulated |
| Cn1ccnc1S/C(=C/C=C(C#N)C#N)c1ccc(Cl)cc1 [i14G1-12] | decreased translation of the ACTB mRNA | general trend of upregulation | either unaffected or slightly upregulated | all found to be upregulated |

Source: US20250090510A1, “eIF4G1-eIF1 INHIBITORS AND USE THEREOF” (YEDA RESEARCH AND DEVELOPMENT CO. LTD., priority 2022, published 2025)
